Experiment [1] deals with T1, DYRK1B (Homo sapiens, UniProt Q9Y463). Type of experiment: cell-based. Also on record: expressed in transfected cells; host or cells: glioma cells (U87).
Experiment [2] has as its target T2, DYRK1B (Homo sapiens, UniProt Q9Y463, P333A).
T2 construct: expressed in transfected cells; host or cells: glioma cells (U87)
Type of experiment: cell-based.

Experiment [3] has as its target T1, DYRK1B. In kind it is biochemical. The conditions noted are these: FLAG-DYRK1B from cells treated with harmine 10 μM or CX-4945 1 μM for 8 hours. Also on record: expressed in transfected cells; host or cells: HEK293T or U87 cells; immunoprecipitate used in vitro.
Another experiment deals with VCB-CUL2 complex. In kind it is binding.
Experiment [4] concerns DYRK1B. Type of experiment: cell-based, human.
The subject of experiment [5] is GSK3β. In kind it is biochemical, human.
Experiment [6] relates to GSK3β. Type of experiment: cell-based, human.
For the next experiment, the system named is DYRK1A. Type of experiment: cell-based, human.
Another experiment relates to HIF2α. Type of experiment: cell-based, human.

Sequence of GSK3β (P49841 whole entry): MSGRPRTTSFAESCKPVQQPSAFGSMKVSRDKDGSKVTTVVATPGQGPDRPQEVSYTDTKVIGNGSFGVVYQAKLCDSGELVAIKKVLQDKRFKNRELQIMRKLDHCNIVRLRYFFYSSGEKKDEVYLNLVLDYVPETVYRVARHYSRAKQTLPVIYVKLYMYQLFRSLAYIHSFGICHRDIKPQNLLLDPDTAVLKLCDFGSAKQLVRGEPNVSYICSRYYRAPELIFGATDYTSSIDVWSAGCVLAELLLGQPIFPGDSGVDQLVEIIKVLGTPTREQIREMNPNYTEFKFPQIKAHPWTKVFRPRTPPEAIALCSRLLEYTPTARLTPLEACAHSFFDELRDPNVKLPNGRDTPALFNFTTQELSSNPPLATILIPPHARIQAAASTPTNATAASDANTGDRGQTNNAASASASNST
T1 sequence (Q9Y463 whole entry): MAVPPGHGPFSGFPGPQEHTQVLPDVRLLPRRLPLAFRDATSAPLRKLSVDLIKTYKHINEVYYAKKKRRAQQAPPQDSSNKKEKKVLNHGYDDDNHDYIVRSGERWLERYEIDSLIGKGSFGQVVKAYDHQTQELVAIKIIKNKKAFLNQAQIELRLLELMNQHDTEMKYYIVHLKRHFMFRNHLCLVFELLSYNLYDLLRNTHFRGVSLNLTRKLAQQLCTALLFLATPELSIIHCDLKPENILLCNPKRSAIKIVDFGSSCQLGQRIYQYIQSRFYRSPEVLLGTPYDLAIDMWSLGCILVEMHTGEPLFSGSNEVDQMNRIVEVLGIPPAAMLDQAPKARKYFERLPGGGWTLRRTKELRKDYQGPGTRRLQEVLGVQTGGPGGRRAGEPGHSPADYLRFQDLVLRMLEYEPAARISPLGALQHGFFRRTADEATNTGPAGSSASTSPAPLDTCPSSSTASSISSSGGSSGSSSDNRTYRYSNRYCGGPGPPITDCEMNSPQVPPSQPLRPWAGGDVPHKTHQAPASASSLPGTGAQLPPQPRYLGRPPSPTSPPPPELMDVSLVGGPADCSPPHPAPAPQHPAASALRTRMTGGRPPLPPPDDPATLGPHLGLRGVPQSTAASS
T2 sequence (Q9Y463 whole entry P333A): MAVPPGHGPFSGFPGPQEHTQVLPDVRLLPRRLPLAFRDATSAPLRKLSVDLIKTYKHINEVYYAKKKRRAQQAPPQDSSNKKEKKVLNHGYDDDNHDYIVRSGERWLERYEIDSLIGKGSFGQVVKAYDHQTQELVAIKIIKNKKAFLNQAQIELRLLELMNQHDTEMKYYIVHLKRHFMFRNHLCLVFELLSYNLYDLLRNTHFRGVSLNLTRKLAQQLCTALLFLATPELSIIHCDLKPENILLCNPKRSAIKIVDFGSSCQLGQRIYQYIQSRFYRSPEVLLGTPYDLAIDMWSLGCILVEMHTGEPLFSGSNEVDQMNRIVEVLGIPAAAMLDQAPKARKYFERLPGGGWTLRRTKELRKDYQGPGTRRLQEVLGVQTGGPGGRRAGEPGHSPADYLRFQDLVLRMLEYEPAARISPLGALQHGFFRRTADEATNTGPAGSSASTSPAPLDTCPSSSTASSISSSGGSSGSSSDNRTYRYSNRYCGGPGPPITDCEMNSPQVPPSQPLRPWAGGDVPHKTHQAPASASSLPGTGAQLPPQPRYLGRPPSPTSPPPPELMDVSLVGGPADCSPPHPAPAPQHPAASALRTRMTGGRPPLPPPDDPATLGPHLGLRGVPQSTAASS

Turning to `COC(=O)CNC(=O)C(=O)OC` [DMOG, dimethyloxalylglycine], at DYRK1B [1], the “prolyl hydroxylation of DYRK1B” value is listed as “caused loss” and the “tyrosine autophosphorylation of DYRK1B” value was “caused loss”. Also, at DYRK1B [2], the “prolyl hydroxylation of DYRK1B-P333A” value is “caused loss” and the “tyrosine auto-phosphorylation of DYRK1B-P333A” value was “caused loss”.
On to `COc1ccc2c(c1)[nH]c1c(C)nccc12` [harmine], for which the “phosphorylation of the ID2-T27 substrate” value at DYRK1B [3] is on record as “severely impairing”. Further, at DYRK1B [1], the “prolyl hydroxylation of DYRK1B” value is reported as “failed to perturb” and the “tyrosine autophosphorylation of DYRK1B” value is listed as “severely impairing”.
Turning to CoCl2, in the experiment with DYRK4, the “prolyl hydroxylation of DYRK4” value is reported as “caused loss” and the “tyrosine autophosphorylation of DYRK4” value is on record as “caused loss”. Besides, in the experiment with VCB-CUL2 complex, the “ID2-mediated dissociation of CUL2 from VCB” value was “elicited” and the VHL-HIF2α interaction entry is listed as “disrupted”. In addition, in the experiment with DYRK1B [4], the “prolyl hydroxylation of DYRK1B” value is recorded as “abolished” and the “tyrosine autophosphorylation of DYRK1B” value is “abolished”. In addition, the “GSK3β-mediated phosphorylation of GST-c-MYC” value with GSK3β [5] is “abolished”. Besides, on DYRK1B [1], the “proline hydroxylation on DYRK1 kinase” value is given as “complete elimination”, the “prolyl hydroxylation of DYRK1B” value is given as “caused loss” and the “tyrosine autophosphorylation of DYRK1B” value was “caused loss”. In the experiment on GSK3β [6], the “prolyl hydroxylation of GSK3β” value is “caused loss” and the “tyrosine autophosphorylation of GSK3β” value is given as “caused loss”. For the same compound, in the experiment on DYRK1A, the “prolyl hydroxylation of DYRK1A” value is listed as “abolished” and the “tyrosine autophosphorylation of DYRK1A” value is reported as “abolished”. Further, in the experiment with HIF2α, the “proline hydroxylation on HIF2-α” value was “complete elimination” and the “prolyl-hydroxylation of HIF2α” value is given as “prevented”.

The values above are taken from patent US20230138177A1 (priority 2020, published 2023).
